Measurements taken from patent US6831104B2, “Insect pest eradication system” (priority 2000, dated 2004).
Like-named read-outs stand apart in the source and are kept apart here.

What was measured:
active fire ant colonies = experiment: Test 7: methanol alone; trans-dichloroethylene/methanol solution then Diazinon solution; assay type: in vivo, Red Fire Ant; settings: for fire ant activity upon surface of mound: upon wetting first mound (about 5 inches) with the alcohol alone
Protocol: In the seventh test, active fire ant colonies were treated with methanol and then with a mixture of methanol plus trans-dichloroethylene. Additionally, an aqueous Diazinon® solution was applied to a targeted mound following application of the latter mixture. First, an active fire ant mound, approximately 5 inches in diameter, was treated with enough methanol to wet the surface of the mound. […] Then a solution of three parts methanol to one part trans-dichloroethylene was applied to the surface of a second fire ant mound approximately 8 inches in diameter. […] After five minutes, the second mound was pierced in several places with a steel shaft. A Diazinon® solution was then applied to the mound. At no time were ants observed exiting the second mound.

live fire ant colony [1] = settings: in vivo
fire ant colony = experiment: Test 1: trans-dichloroethylene/vegetable oil mixture poured on fire ant colony in 2-gallon flowerpot; assay type: in vivo, Red Fire Ant
Protocol: These tests were conducted on active fire ant mounds located primarily upon an acre tract of residential property in Lake Charles, La.
In the first test, a mixture of 1 part trans-dichloroethylene to 2 parts vegetable oil (liquid Crisco® brand vegetable oil) was used. A fire ant colony that had established itself within a 2-gallon flowerpot was treated with approximately 1 cup of a trans-dichloroethylene/vegetable oil mixture. The technique involved pouring the liquid mixture onto the surface of the targeted fire ant mound. Observations of fire ant activity were made upon application and following application of the mixture. Afterward, the contents of the infested flower pot were emptied upon a flat, ply-wood surface and dissected. The following results of individual fire ant activity within the treated soil were observed: […]

active fire ant mound = experiment: General experimental method: knockout agent mixture then insecticide on fire ant mound, excavation of plugs; assay type: in vivo, Red Fire Ant; settings: applied superficially to a fire ant mound
Source text: The experimental method used herein entailed first preparing a mixture of 1 part trans-dichloroethylene (knockout agent) and 2 parts vegetable oil (liquid Crisco® was the vegetable oil most often used in the test) and then applying the mixture to the surface of an active fire ant mound 12 inches or less in surface diameter. The oil with the knockout agent is preferably biodegradable and miscible with the knockout agent. Units of measure are in pints, with the mixture comprising approximately ½ pint trans-dichloroethylene for every pint of vegetable oil. Approximately one-quarter (¼) pint of the trans-dichloroethylene/vegetable oil mixture was applied to a fire-ant hill about 12-inches in surface diameter.
The next step entailed applying a suitable insecticide to the fire ant mound. The insecticide was a commercially available Diazinon® applied one of two forms onto a fire ant mound that had been treated with the trans-dichloroethylene mixture. […]
Following all of these tests, the targeted fire ant colonies were excavated in the form of plugs. These “plugs” of excavated earth that had comprised the fire ant colony measured about 12″×12″×12. […] Hundreds, if not thousands, of dead individual worker ants, dead ant larvae and eggs were detected. […]

live fire ant colony [2] = experiment: Test 8: ethanol and water; trans-dichloroethylene/ethanol solution then Diazinon solution; design: species or system Red Fire Ant; settings: in vivo
Source text: In eighth and ninth tests, the method of the seventh test was duplicated using two other alcohols, namely ethanol and isopropanol.

CO [methanol]
knock out of fire ants within a targeted mound (conclusion) (active fire ant colonies; in vivo): does not serve to knockout fire ants | fire ant activity upon surface of mound (active fire ant colonies): observed exiting the mound | fire ant activity upon surface of mound (active fire ant colonies; listed as pure ethanol): Significant fire ant activity

CC(C)O [anhydrous isopropanol, isopropanol]
knock out of fire ants within a targeted mound (conclusion) (live fire ant colony [1]): neither serves to knock out fire ants

Cl/C=C/Cl [trans-dichloroethylene]
toxicity to fire ants (conclusion) (fire ant colony; small dosages, short periods of exposure): not itself toxic to fire ants | evaporation from treated soil (fire ant colony; treated soil exposed to the open air): rapidly evaporates | incapacitation of individual insects in targeted fire ant mound (active fire ant mound): completely incapacitated

CCO [anhydrous ethanol, ethanol]
knock out of fire ants within a targeted mound (conclusion) (live fire ant colony [2]): neither serves to knock out fire ants
